Reference: patent US10172953B2, “XTEN conjugate compositions and methods of making same” (Amunix Operating Inc., priority 2012, dated 2019)
Square brackets hold non-standard residues; d marks the D form. Peptide text beside a SMILES is read from it. * marks the point of attachment. Dolaproine = CO[C@@H]([C@@H]1CCCN1)[C@@H](C)C(=O)O; Dil = CC[C@H](C)[C@H](NC)[C@@H](CC(=O)O)OC; X1 = C[C@@H](N*)[C@@H](O)c1ccccc1; NMeV = CN[C@H](C(=O)O)C(C)C

Legend:
[1] = test system: folate receptor-positive KB cell line; assay: CellTiter-Glo anti-proliferation assay on KB cells; format: cell-based; conditions: absence of folic acid competitor, read-out: IC50 (cell killing)
Method: The ability to selectively target and kill cells bearing folate receptors was evaluated. Test articles of free MMAE, a non-targeting 3×MMAE-XTEN conjugate (XTEN linked to toxin) and the folate receptor-targeted 3×FA(γ),3×MMAE-XTEN conjugate were evaluated in a CellTiter-Glo anti-proliferation assay using the folate receptor-positive KB cell line. As culture media contain high folic acid content, KB cells were grown in folic acid-free media containing 10% heat-inactivated fetal calf serum at 37° C., 5% C02 for at least 7 days prior to the commencement of the cell viability experiment, This medium was also utilized for the execution of the experiment. In brief, KB cells were plated at 10,000 cells per well onto a 96-well microtiter assay plate. KB cells were allowed to adhere to the plate by an overnight incubation at 37° C., 5% CO2. The spent media was then removed and wells designated to contain folic acid competitor received assay medium containing folic acid, while wells not designated to have folic acid competitor received assay medium only. The plate was incubated for 30 min at 37° C., 5% CO2 before the assay media was aspirated and plate washed with assay media. […] After the appropriate incubation period, CellTiter-Glo reagent was added and the plate was read on a luminometer. The IC50 of each test article was determined using a 4 parameter logistic curve fit using GraphPad Prism.

[2] = rats, intravenous administration; cited from earlier work

Molecule	IC50 [1]	terminal half-life [2]
CC[C@H](C)[C@@H]([C@@H](CC(=O)N1CCC[C@H]1[C@H](OC)[C@@H](C)C(=O)N[C@H](C)[C@@H](O)c1ccccc1)OC)N(C)C(=O)[C@@H](NC(=O)[C@@H](NC)C(C)C)C(C)C [MMAE, monomethyl auristatin E] (H-[NMeV]V[Dil][Dolaproine]-X1)	0.8 nM	–
follistatin: protein encoded by the FST gene (protein, UniProt P19883 30-344, looked up) Follistatin: GNCWLRQAKNGRCQVLYKTELSKEECCSTGRLSTSWTEEDVNDNTLFKWMIFNGGAPNCIPCKETCENVDCGPGKKCRMNKKNKPRCVCAPDCSNITWKGPVCGLDGKTYRNECALLKARCKEQPELEVQYQGRCKKTCRDVFCPGSSTCVVDQTNNAYCVTCNRICPEPASSEQYLCGNDGVTYSSACHLRKATCLLGRSIGLAYEGKCIKAKSCEDIQCTGGKKCLWDFKVGRGRCSLCDELCPDSKSDEPVCASDNATYASECAMKEAACSSGVLLEVKHSGSCNSISEDTEEEEEDEDQDYSFPISSILEW	–	over 2 hours
